Consider 16 compounds from patent US8354412B2, “Beta-3 receptor ligands and their use in therapy” (Universita' Degli Studi di Bari, priority 2006, dated 2013).

Molecules are shown by their SMILES. Like-named read-outs stand apart in the source and are kept apart here. Bounds are passed on as bounds.

Assay [1] addresses T1, cloned human beta-3 adrenergic receptor (Homo sapiens, UniProt P13945).
T1 construct: expressed in transfected cells; host or cells: CHO-K1
In words: cAMP accumulation (DELFIA cAMP-Eu assay) in CHO-K1 cells expressing the beta-3 adrenergic receptor. It is filed as cell-based. Conditions: for Emax: CHO-K1, maximum cAMP response, isoproterenol 10^−4 M = 100%, absence of agonists = 0%, read-out: Intrinsic Activity (IA %); for EC50: concentration of ligand producing 50% of maximum cAMP accumulation, CHO-K1 human β3, SEM, n ≧ 3; for type of activity on the beta-3 adrenergic receptor (in words): statement in the description. On the procedure: The determination of the beta-3 adrenergic activity of the compounds of general formula (I) was performed by measuring the levels of cAMP in cell lines of CHO-K1 that express the cloned human beta-3 adrenergic receptor. The accumulation of cAMP is directly correlated to the beta-3 adrenergic activity of the compound and is a predictive measure of the effectiveness of the ligand. The accumulation of cAMP produced by the compounds 1a-1h was determined using the Dissociation Enhanced Lanthanide Fluorescence Immunoassay (DELFIA®, Gabriel, D.; Vernier, M.; Pfeifer, M. J.; Dasen, B.; Tenaillon, L.; Bouhelal, R. Assay and Drug Development Technologies 2003, 1, 291-303), endowed with greater sensitivity and greater accuracy than [α-^32P] radioisotope methods (Hoffmann, C.; Leitz, M. R.; Obendorf-Maass, S.; Lohse, M. J.; Klotz, K.-N. Naunyn-Schmiedeberg's Arch. Pharmacol. 2004, 369, 151-159) or [^3H] (Nannies, K. M.; Briend-Sutren, M. M.; Emorine, L. J.; Delavier-Klutchko, C.; Marullo, S.; Strosberg, A. D. Eur. J. Biochem. 1991, 196, 357-361) of determining the levels of cAMP in cell lines.
(§1) The cell lines of “Chinese hamster ovary” (CHO) that individually express the three subtypes of the human adrenergic receptor (β1, β2 or β3 were grown at 37° C. in an atmosphere composed of 5% of CO2 and 95% of air in a culture medium of Dulbecco's Modified Eagle Medium with a nutrient mixture of F12 (DMEM/F12) supplemented with 10% of bovine fetal Serum, 2 mM of L-glutamine, 100 units/ml of penicillin G and 100 μg/ml of […].
The DELFIA test (Dissociation Enhanced Lanthanide […] Immuno Assay) used for measuring the levels of cAMP was performed according to the protocol supplied by PerkinElmer Life Science. The optimization of the experimental conditions (quantity of cells, times of incubation) is reported below.
A plate of confluence cells was trypsinized and the cells were resuspended in the aforementioned culture medium, sown at a concentration of 50000 cells/200 μl per well in a 96-well plate and cultivated overnight in a CO2 incubator. The culture medium was then aspirated from every well and substituted with 100 μl of culture substrate without serum, preheated at 37° C. The plate was then put back into a CO2 incubator for 30 mins at 37° C. 50 μl of IBMX (3-isobutyl-1-methylxanthine) 1 mM, an inhibitor of the phosphodiesterase was then added to all the wells. In some wells 50 μl of forskolin (compound used for the validation of the DELFIA) was added at different concentrations (100 nM, 500 nM, 1 μM, 10 μM, 50 μM) and in the other wells 50 μl of the compounds to be tested at the same concentrations as the forskolin; the plate was then again incubated for 30 min at 37° C. The cells, at this point, were lysed and incubated at room temperature for 5 min. The plate was used immediately for measuring the levels of cAMP or stored at 4° C. until the measurement was carried out. The fluorescence was determined using a multilabel time-resolved fluorimetry technique performed on a PerkinElmer 1420 Victor®. The excitation and emission wavelengths were 340 nm and 615 nm respectively.
(In general: cAMP levels reflect the balance of adenylyl cyclase and phosphodiesterase activity.)

The target in assay [2] is T2, cloned human β1-adrenergic receptor (Homo sapiens, UniProt P08588).
T2 construct: expressed in transfected cells; host or cells: CHO (membranes)
In words: [3H]-dihydroalprenolol binding on CHO cell membranes, β1-adrenergic receptor. On the procedure: as §1
(§2) The preconfluence cells were washed with cold PBS, removed from the surface of the plate, collected in cold lysis buffer (10×10^6/ml; 5 mM Tris/HCl, 2 mM EDTA, pH 7.4 at 4° C.) and homogenized with a Brinkmann Polytron (5 for 3×10 secs). The cell membranes obtained were then […] for 10 mins at 4° C. at 1000 g. The supernatant was centrifuged at 10000 g for 30 min. at 4° C. The resultant membrane pellet was resuspended in cold incubation buffer (50 mM Tris/HCl, 10 mM MgCl2, pH 7.4 for the binding experiments on the β1-adrenergic receptors; 50 mM Tris/HCl, pH 7.4 for the binding experiments of on the β2-adrenergic receptors) and its protein content was then determined. The membrane suspension obtained was used immediately or stored at −80° C. until used in the binding experiments.
(§3) The saturation experiments were conducted by incubating the cell membranes (50 μg of protein) in 500 μl of incubation buffer, containing increasing concentrations of [^3H]-dihydroalprenolol (0.1 nM, 0.5 nM, 1 nM, 3 nM, 5 nM, 10 nM). The β1-adrenergic receptors were incubated at 30° C. for 30 min. while the incubation lasted 90 min. in the case of the β2-adrenergic receptor. […] The filters were then washed (3×1 ml) with cold incubation buffer. The residual radioactivity of the filters was measured using a Beckmann LS6500 Multi-purpose scintillator.
(§4) The competitive experiments were conducted by incubation of 50 μg of protein with increasing quantities of the compound under examination (from 10^−9M to 10^−4M) and 4 nM [^3H]-dihydroalprenolol for the β1-adrenergic receptor or 0.4 nM for the β2-adrenergic receptor, in a total volume of 500 μl of incubation buffer.

The target in assay [3] is T3, cloned human β2-adrenergic receptor (Homo sapiens, UniProt P07550).
T3 construct: expressed in transfected cells; host or cells: CHO (membranes)
In words: [3H]-dihydroalprenolol binding on CHO cell membranes, β2-adrenergic receptor. As for the experimental part: as §1, §2, §3, §4

[4] abbreviates: human β1, Cheng-Prusoff, 4 nM [3H]-dihydroalprenolol, read-out: Binding Ki, β1.
[5] abbreviates: human β2, Cheng-Prusoff, 0.4 nM [3H]-dihydroalprenolol, read-out: Binding Ki, β2.

T2 sequence (P08588 whole entry): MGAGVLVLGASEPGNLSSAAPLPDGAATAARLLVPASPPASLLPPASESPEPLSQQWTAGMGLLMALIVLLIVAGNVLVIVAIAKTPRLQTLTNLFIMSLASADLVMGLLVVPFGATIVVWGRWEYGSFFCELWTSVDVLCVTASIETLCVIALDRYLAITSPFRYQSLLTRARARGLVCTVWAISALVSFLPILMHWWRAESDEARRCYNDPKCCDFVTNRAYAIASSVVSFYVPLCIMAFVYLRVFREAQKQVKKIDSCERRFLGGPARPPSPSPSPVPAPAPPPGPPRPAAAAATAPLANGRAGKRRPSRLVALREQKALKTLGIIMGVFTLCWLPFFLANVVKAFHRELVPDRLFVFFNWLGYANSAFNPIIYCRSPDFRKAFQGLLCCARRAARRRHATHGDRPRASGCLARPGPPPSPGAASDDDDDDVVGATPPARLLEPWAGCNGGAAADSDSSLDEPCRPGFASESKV
T1 sequence (P13945 whole entry): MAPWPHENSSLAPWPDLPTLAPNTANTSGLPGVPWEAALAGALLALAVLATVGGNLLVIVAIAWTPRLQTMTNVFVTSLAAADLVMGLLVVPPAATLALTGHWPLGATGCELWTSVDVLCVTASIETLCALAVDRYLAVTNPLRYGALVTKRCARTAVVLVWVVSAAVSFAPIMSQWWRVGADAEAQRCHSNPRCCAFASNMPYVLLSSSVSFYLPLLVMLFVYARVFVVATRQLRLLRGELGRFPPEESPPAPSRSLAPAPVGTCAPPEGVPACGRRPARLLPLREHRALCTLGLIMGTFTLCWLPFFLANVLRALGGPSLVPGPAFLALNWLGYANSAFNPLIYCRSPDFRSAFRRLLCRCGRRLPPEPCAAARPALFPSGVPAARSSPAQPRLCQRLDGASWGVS
T3 sequence (P07550 whole entry): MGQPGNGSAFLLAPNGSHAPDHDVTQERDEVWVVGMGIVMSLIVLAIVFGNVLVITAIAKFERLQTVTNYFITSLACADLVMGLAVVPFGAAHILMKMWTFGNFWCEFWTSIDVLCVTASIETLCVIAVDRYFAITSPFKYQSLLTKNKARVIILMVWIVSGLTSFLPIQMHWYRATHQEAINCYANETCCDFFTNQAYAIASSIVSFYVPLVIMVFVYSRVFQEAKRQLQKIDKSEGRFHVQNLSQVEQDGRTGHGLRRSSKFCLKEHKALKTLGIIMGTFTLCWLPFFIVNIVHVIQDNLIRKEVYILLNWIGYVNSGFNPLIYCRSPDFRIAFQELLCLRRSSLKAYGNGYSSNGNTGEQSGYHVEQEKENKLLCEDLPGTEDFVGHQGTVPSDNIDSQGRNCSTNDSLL

What is called EC50 is the concentration at which the effect is half-maximal. Low values mean higher potency in that assay, high ones lower potency in that assay. As usually defined, the Ki is the dissociation constant of the complex between target and ligand, obtained from inhibition or displacement. As for `CC(C)(Oc1ccc(CCNCC(O)c2ccccc2)cc1)C(=O)O` (racemic) [Compound 1a, (±)-2-{4-[2-(2-phenyl-2-hydroxyethylamino)ethyl]phenoxy}-2-methylpropionic acid], in assay [1], the Emax is 68%, the EC50 was found to be 4.9 ± 0.25 nM and the “type of activity on the beta-3 adrenergic receptor (in words)” value (“type of activity” below) is listed as “behaves as an agonist of the beta-3 adrenergic receptor independently of the configuration of the chiral atom”. Further, the Ki in assay [2] (setting [4]) is above 7000 nM. Moreover, the Ki in assay [3] (setting [5]) is above 5000 nM.
`CC(Oc1ccc(CCNCC(O)c2ccccc2)cc1)C(=O)O` (racemic) [Compound 1d, (±)-2-{4-[2-(2-phenyl-2-hydroxyethylamino)ethyl]phenoxy}propionic acid]: in assay [1], the Emax came out at 65% and the response was half-maximal at 3.8 ± 0.7 nM (EC50). Moreover, in assay [2] (setting [4]), the Ki was above 7000 nM. Further, the Ki in assay [3] (setting [5]) was above 5000 nM.
The corresponding values for `CC(C)(Oc1ccc(CCNC[C@H](O)c2ccccc2)cc1)C(=O)O` [Compound 1b, (2R)-(−)-2-{4-[2-(2-phenyl-2-hydroxyethylamino)ethyl]phenoxy}-2-methylpropionic acid] are 72%, 3.9 ± 2.1 nM, above 7000 nM and above 5000 nM.
For `CC(C)(Oc1ccc(CCNC[C@@H](O)c2ccccc2)cc1)C(=O)O` [Compound 1c, (2S)-(+)-2-{4-[2-(2-phenyl-2-hydroxyethylamino)ethyl]phenoxy}-2-methylpropionic acid] the same measures were 76%, 3.4 ± 0.8 nM, above 7000 nM and above 5000 nM.
For `C[C@H](Oc1ccc(CCNC[C@@H](O)c2ccccc2)cc1)C(=O)O` [Compound 1e, (2S)-(+)-2-{4-[2-((2S)-2-phenyl-2-hydroxyethylamino)ethyl]phenoxy}propionic acid], in assay [1], the Emax is -64%; the midpoint of the response, the EC50, lay at 192 ± 19 nM; the “type of activity” value was “inverse agonist activity”. The Ki in assay [2] (setting [4]) was above 7000 nM. In addition, in assay [3] (setting [5]), the Ki was above 5000 nM.
On to `C[C@H](Oc1ccc(CCNC[C@H](O)c2ccccc2)cc1)C(=O)O` [Compound 1f, (2S)-(−)-2-{4-[2-((2R)-2-phenyl-2-hydroxyethylamino)ethyl]phenoxy}propionic acid], for which, in assay [1], the Emax amounted to 50%, the EC50 came out at 2.2 ± 0.7 nM and the “type of activity” value is reported as “particularly active compound as agonist”. The Ki in assay [2] (setting [4]) is above 7000 nM. In assay [3] (setting [5]), the Ki was above 5000 nM.
In the case of `C[C@@H](Oc1ccc(CCNC[C@@H](O)c2ccccc2)cc1)C(=O)O` [Compound 1g, (2R)-(+)-2-{4-[2-((2S)-2-phenyl-2-hydroxyethylamino)ethyl]phenoxy}propionic acid], in assay [1], the Emax was -73%, a half-maximal effect (EC50) was put at 176 ± 20 nM and the “type of activity” value is on record as “inverse agonist activity”. In addition, the Ki in assay [2] (setting [4]) is above 7000 nM. In assay [3] (setting [5]), the Ki is above 5000 nM.
Turning to `C[C@@H](Oc1ccc(CCNC[C@H](O)c2ccccc2)cc1)C(=O)O` [Compound 1h, (2R)-(−)-2-{4-[2-((2R)-2-phenyl-2-hydroxyethylamino)ethyl]phenoxy}propionic acid], in assay [1], the Emax came to 35% and the EC50 was 107 ± 37 nM. Besides, the Ki in assay [2] (setting [4]) is above 7000 nM. The Ki in assay [3] (setting [5]) was above 5000 nM.
For the compound `C[C@H](NCCc1ccc(O[C@H](C)C(=O)O)cc1)[C@@H](O)c1ccccc1` [Compound 1k, (R)-2-[4-[2-((1S,2S)-1-hydroxy-1-phenylpropan-2-yl-amino)ethyl]phenoxy]propionic acid], the Emax in assay [1] worked out at 53%. In assay [1], this compound came in with an EC50 of 1.97 ± 0.9 nM. The results for the Ki in assay [2] and in assay [3] were above 7000 nM and above 5000 nM, respectively.
As to `COc1ccc(S(=O)(=O)N2CCN(C[C@H](O)COc3ccccc3)CC2)cc1` [Compound 2a, (S)-2-hydroxy-3-[4-(4-methoxyphenylsulfonyl)piperazin-1-yl]-1-phenoxy propane], in assay [1], the Emax was 58% and the half-maximal effective concentration (EC50) amounted to 5 ± 1.9 nM. Further, in assay [2] (setting [4]), the Ki is above 7000 nM. In assay [3] (setting [5]), the Ki is above 5000 nM.
As for `COc1ccc(S(=O)(=O)N2CCN(C[C@H](O)COc3ccc(O)cc3)CC2)cc1` [Compound 2b, (S)-2-hydroxy-1-(4-hydroxyphenoxy)-3-[4-(4-methoxyphenylsulfonyl)piperazin-1-yl]propane], in assay [1], the Emax stood at 67% and a half-maximal response (EC50) required 1.97 ± 0.92 nM. The inhibition constant Ki in assay [2] (setting [4]) was above 7000 nM. The Ki in assay [3] (setting [5]) is above 5000 nM.
For `COc1ccc(S(=O)(=O)N2CCN(C[C@H](O)COc3ccc(OCc4ccccc4)cc3)CC2)cc1` [Compound 2c, (S)-1-(4-benzyloxyphenoxy)-2-hydroxy-3-[4-(4-methoxybenzenesulfonyl)piperazin-1-yl]propane] the same measures were 48%, 8.3 ± 1.94 nM, above 7000 nM and above 5000 nM.
The corresponding values for `COc1ccc(S(=O)(=O)N2CCN(C[C@H](O)COc3cccc([N+](=O)[O-])c3)CC2)cc1` [Compound 2d, (S)-2-hydroxy-3-[4-(4-methoxyphenylsulfonyl)piperazin-1-yl]-1-(3-nitrophenoxy)-propane] are 84%, 4.1 ± 1.93 nM, above 7000 nM and above 5000 nM.
Regarding `COc1ccc(S(=O)(=O)N2CCN(C[C@H](O)COc3cccc(N)c3)CC2)cc1` [Compound 2e, (S)-1-(3-aminophenoxy)-2-hydroxy-3-[4-(4-methoxyphenylsulfonyl)piperazin-1-yl]propane], the Ki in assay [2] (setting [4]) is above 7000 nM; in assay [3] (setting [5]), above 5000 nM.
As for `COc1ccc(S(=O)(=O)N2CCN(C[C@H](O)COc3cccc4ccccc34)CC2)cc1` [Compound 2i, (S)-2-hydroxy-1-(napht-1-yloxy)-3-[4-(4-methoxyphenylsulfonyl)piperazin-1-yl)propane], in assay [1], the Emax was found to be 43% and the EC50 was determined as 5.24 ± 1.08 nM. Further, the Ki in assay [2] (setting [4]) was above 7000 nM. The Ki in assay [3] (setting [5]) was above 2000 nM.
For `COc1ccc(S(=O)(=O)N2CCN(C[C@H](O)COc3cccc4[nH]c5ccccc5c34)CC2)cc1` [Compound 2j, (S)-1-(Carbazol-4-yloxy)-2-hydroxy-3-[4-(4-methoxybenzenesulfonyl)piperazin-1-yl)propane] the same measures were 38%, 3.8 ± 1.8 nM, above 7000 nM and 177 nM.
